{"source": "patent US20050257287A1", "about": "“Vectors capable of imparting herbicide resistance and viral cross protection and methods” (priority 2002, published 2005)", "tested_on": "weeds including nutgrass (Cyperus rotundus L.), little hogweed (Portulaca oleracea L.), pigweed (Amaranthus sp.) and annual graminaceous weeds", "assay": "Field experiment: weed eradication by Basta", "type": "in vivo", "conditions": "0.5% Basta with or without AMS 1.5 g/L", "protocol": "Two varieties of melon (Galia-type cv. 5080 and Ananas-type cv. Ofir), two varieties of watermelon (cvs Crimson and Seedless 313), squash (cv. Maayan) and cucumber (cv. Shimshon) were seeded in Speedling type trays. Seedlings were inoculated by bombardment of cotyledons with the AGII-Bar or AGII construct. Plants were planted in a 500 m^2 field, in a sandy loam soil, at 0.5 m intervals in six 2 m wide rows and irrigated by a single line of 0.5 m interval dripline. Each row included 15 plants of each of the five-cucurbit varieties, 13 plants inoculated with AGII-Bar and two inoculated with AGII as a control. Irrigation was initiated a week previously to boost weeds and facilitate planting. […] The active ingredient was calculated per hectare (g a.i./ha) on basis of ground speed measured separately for each treatment. […] Squash fruit were picked and counted daily. […] Each group was counted and then weighed collectively.\nIn order to verify the applicability of AGII-Bar to commercial cucurbit cultivation in a field prone to weed infestation an experiment including more than 450 plants was conducted. […] Ten day post inoculation, the infection rate was determined by ELISA of 50 random plant samples and found to be 100%. […]", "data": [{"substance": "ammonium sulphate [AMS]", "values": [{"measurement": "Effect of adjuvant on herbicidal activity", "result": "did not exert a detectable difference"}]}]}
